Measurements: patent US7906332B2, “Method of preparing basement membrane, method of constructing basement membrane specimen, reconstituted artificial tissue using the basement membrane specimen and process for producing the same” (Japan Science And Technology Agency, priority 2001, dated 2011)

Assays:
[1] = tested on: alveolar epithelial cells; assay: Construction of a basement membrane according to the MMP inhibition method; type: cell-based; details: 2 weeks on fib, 1% fetal bovine serum, no basement membrane components added
Protocol: Alveolar epithelial cells were cultured on collagen fiber (fib) with the only addition of 1% fetal bovine serum and synthetic inhibitor of matrix metalloproteinase (MMP) and without the addition of basement membrane components for 2 weeks. As MMP inhibitor, GM6001 (Calbiochem) and MMP-2/MMP-9 inhibitor I (Calbiochem) were used. 1.1 μM of GM6001 and 310 μM of MMP-2/MMP-9 inhibitor I (2/9 inhibitor) were added respectively.

[2] = tested on: type II alveolar epithelial cells; assay: Basement membrane formation by alveolar epithelial cells on collagen fiber (fib) with Matrigel or TGF-β (T2-fib-MG, T2-fib-TGFβ); type: cell-based, rat; details: fibrous collagen substratum, TGF-β in upper and lower wells (T2-fib-TGFβ)
Description: The present inventors made a study on a process to form a basement membrane structure just beneath the basal surface of epithelial cells on a fibrous collagen matrix by the coculture with fibroblasts-embedded collagen gel, and by the culture in the presence of TGF-β or Matrigel. […] However, it was also confirmed that type II alveolar epithelial cells were unable to constitute a basement membrane without the supply of, for example, a fibroblast, exogenous basement membrane components from Matrigel or a growth factor TGF-β, since the endogenous basement membrane components from type II alveolar epithelial cells are not enough for the cells to assemble a basement membrane structure effectively. […]

CNC(=O)[C@H](Cc1c[nH]c2ccccc12)NC(=O)[C@@H](CC(=O)NO)CC(C)C [GM6001]
basement membrane structure formation beneath the cells ([1]; 1.1 μM): complete basement membrane structure (▴) was formed

O=C(O)[C@@H](Cc1ccccc1)NS(=O)(=O)c1ccc(-c2ccccc2)cc1 [MMP-2/MMP-9 inhibitor I]
basement membrane structure formation beneath the cells ([1]; 310 μM): complete basement membrane structure (▴) was formed

TGF-β
basement membrane formation by type II alveolar epithelial cells [2]: a basement membrane was formed
